In patent publication US10898577B2, “Conjugate of ginsenoside compound K and glycol chitosan and an anti-tumor use thereof” (priority 2015, dated 2021):

Tested on: HT-29 (human colon cancer) cell line
Protocol: To observe the anticancer activity of the GC-CK conjugates, the cytotoxicity of pure GC, CK, and GC-CK conjugates were confirmed in anticancer cells by MTT assay.
Specifically, the HT-29 (human colon cancer) cell line was purchased from the Korean Cell Line Bank (Seoul, Korea) and cultured in RPMI 1640 medium (Welgene, Inc.) containing 1% (w/v) penicillin-streptomycin (Welgene, Inc.) and 10% (v/v) FBS (Welgene, Inc.) in 5% CO2 and 95% humidity at 37° C. The cells were inoculated at a density of 2×10^4 cells/well in 96-well plates (SPL Life Sciences, Korea). After growing for 24 h, the culture medium was replaced with the culture medium containing 100 μL, of various concentrations of GC, standard GC, and GC-CK and cultured for 24 h at 37° C. Next, 10 μL of 3-(4, 5-dimethylthiazol-2-yl)-2, 5-diphenyl-tertazolium bromide) (MTT) was added and the plates were cultured for 3 hours at 37° C. The culture medium was then removed and blue formazan crystals were dissolved with 100 μL of DMSO. The optical density was measured at 570 nm using a Synergy HT multidetection microplate reader (Molecular Devices, BioTek Instruments, Winooski, Vt., USA).

Glycol chitosan [GC]
cytotoxicity in HT29 cells: did not exhibit any cytotoxicity
